Laboratory results from patent US11524968B2, “Heterocyclic compound as a protein kinase inhibitor” (HK inno.N Corporation, priority 2017, dated 2022).

target: JAK1 (Homo sapiens (Human), UniProt P23458); assay: Analysis of JAK1 activity inhibition ability (ADP-Glo Kinase Assay); type: biochemical; conditions: JAK1 enzyme, ADP-Glo luminescence, ATP 250 uM, IRS-itide substrate, 30° C. 40 minutes; read-out: IC50
Procedure, shortened: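 ADP-Glo luminescence read-out of ADP production, with IC50 taken as the concentration halving JAK1 activity relative to control. Enzyme was incubated 40 min at 30 °C with compound, IRS-itide (40 ng/mL) and ATP (250 uM), concentrations as prepared in pH 7.5 Tris-HCl/MgCl2/BSA/DTT buffer.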

JAK1, sequence (P23458 whole entry): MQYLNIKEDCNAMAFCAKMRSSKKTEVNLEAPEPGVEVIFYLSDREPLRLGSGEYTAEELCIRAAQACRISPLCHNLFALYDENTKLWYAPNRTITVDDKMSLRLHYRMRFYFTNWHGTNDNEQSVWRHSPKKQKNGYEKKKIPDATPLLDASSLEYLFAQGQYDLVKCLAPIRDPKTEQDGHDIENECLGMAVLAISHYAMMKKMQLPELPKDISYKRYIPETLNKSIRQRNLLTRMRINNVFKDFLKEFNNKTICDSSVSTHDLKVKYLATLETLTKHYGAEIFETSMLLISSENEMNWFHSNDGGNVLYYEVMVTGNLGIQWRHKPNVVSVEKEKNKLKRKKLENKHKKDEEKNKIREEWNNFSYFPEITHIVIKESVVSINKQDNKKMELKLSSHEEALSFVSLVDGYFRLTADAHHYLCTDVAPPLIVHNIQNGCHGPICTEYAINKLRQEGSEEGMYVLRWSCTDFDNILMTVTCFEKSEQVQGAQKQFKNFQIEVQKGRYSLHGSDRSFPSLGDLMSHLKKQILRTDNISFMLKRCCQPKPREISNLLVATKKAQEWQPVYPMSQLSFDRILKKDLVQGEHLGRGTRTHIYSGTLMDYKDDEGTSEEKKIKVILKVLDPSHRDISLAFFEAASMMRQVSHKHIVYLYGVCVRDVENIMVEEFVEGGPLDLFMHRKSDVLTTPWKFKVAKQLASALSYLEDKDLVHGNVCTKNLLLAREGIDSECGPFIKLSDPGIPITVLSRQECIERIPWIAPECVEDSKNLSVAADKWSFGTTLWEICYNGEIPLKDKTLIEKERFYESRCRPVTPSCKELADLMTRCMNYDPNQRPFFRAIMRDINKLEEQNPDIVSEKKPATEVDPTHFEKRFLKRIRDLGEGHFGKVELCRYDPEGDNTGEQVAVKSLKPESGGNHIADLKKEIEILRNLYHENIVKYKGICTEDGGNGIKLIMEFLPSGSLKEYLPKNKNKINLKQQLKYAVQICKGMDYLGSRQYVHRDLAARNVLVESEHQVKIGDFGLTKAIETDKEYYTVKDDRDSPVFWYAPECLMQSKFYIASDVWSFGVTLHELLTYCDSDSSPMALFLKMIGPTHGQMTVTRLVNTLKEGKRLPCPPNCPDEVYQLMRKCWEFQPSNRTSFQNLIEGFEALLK

SMILES | IC50
CC1CN(C(=O)CCl)CC=C1c1cc(NC(=O)C2CC2)nc2[nH]ccc12 (stereo not drawn) [Example 348, N-(4-(1-(2-chloroacetyl)-3-methyl-1,2,3,6-tetrahydropyridin-4-yl)-1H-pyrrolo[2,3-b]pyridin-6-yl)cyclopropanecarboxamide] | 0.02 to 0.2 µM
CC1CN(C(=O)c2cccnc2Cl)CC=C1c1cc(NC(=O)C2CC2)nc2[nH]ccc12 (stereo not drawn) [Example 349, N-(4-(1-(2-chloronicotinoyl)-3-methyl-1,2,3,6-tetrahydropyridin-4-yl)-1H-pyrrolo[2,3-b]pyridin-6-yl)cyclopropanecarboxamide] | 0.02 to 0.2 µM
CC1CN(C(=O)c2ccc(O)cc2)CC=C1c1cc(NC(=O)C2CC2)nc2[nH]ccc12 (stereo not drawn) [Example 350, N-(4-(1-(4-hydroxybenzoyl)-3-methyl-1,2,3,6-tetrahydropyridin-4-yl)-1H-pyrrolo[2,3-b]pyridin-6-yl)cyclopropanecarboxamide] | 0.02 to 0.2 µM
CC1CN(C(=O)c2cc3ccccc3o2)CC=C1c1cc(NC(=O)C2CC2)nc2[nH]ccc12 (stereo not drawn) [Example 352, N-(4-(1-(benzofuran-2-carbonyl)-3-methyl-1,2,3,6-tetrahydropyridin-4-yl)-1H-pyrrolo[2,3-b]pyridin-6-yl)cyclopropanecarboxamide] | 0.02 to 0.2 µM
CC1CN(C(=O)c2ccc(Cl)c(Cl)c2)CC=C1c1cc(NC(=O)C2CC2)nc2[nH]ccc12 (stereo not drawn) [Example 353, N-(4-(1-(3,4-dichlorobenzoyl)-3-methyl-1,2,3,6-tetrahydropyridin-4-yl)-1H-pyrrolo[2,3-b]pyridin-6-yl)cyclopropanecarboxamide] | 0.02 to 0.2 µM
CC1CN(C(=O)c2ccc(S(C)(=O)=O)cc2)CC=C1c1cc(NC(=O)C2CC2)nc2[nH]ccc12 (stereo not drawn) [Example 354, N-(4-(3-methyl-1-(4-(methylsulfonyl)benzoyl)-1,2,3,6-tetrahydropyridin-4-yl)-1H-pyrrolo[2,3-b]pyridin-6-yl)cyclopropanecarboxamide] | 0.02 to 0.2 µM
CC1CN(C(=O)c2ccc(F)cc2Cl)CC=C1c1cc(NC(=O)C2CC2)nc2[nH]ccc12 (stereo not drawn) [Example 355, N-(4-(1-(2-chloro-4-fluorobenzoyl)-3-methyl-1,2,3,6-tetrahydropyridin-4-yl)-1H-pyrrolo[2,3-b]pyridin-6-yl)cyclopropanecarboxamide] | 0.02 to 0.2 µM
COc1ccc(C(=O)N2CC=C(c3cc(NC(=O)C4CC4)nc4[nH]ccc34)C(C)C2)c(OC)c1 (stereo not drawn) [Example 356, N-(4-(1-(2,4-dimethoxybenzoyl)-3-methyl-1,2,3,6-tetrahydropyridin-4-yl)-1H-pyrrolo[2,3-b]pyridin-6-yl)cyclopropanecarboxamide] | > 0.2 µM
CSc1ccccc1C(=O)N1CC=C(c2cc(NC(=O)C3CC3)nc3[nH]ccc23)C(C)C1 (stereo not drawn) [Example 357, N-(4-(3-methyl-1-(2-(methylthio)benzoyl)-1,2,3,6-tetrahydropyridin-4-yl)-1H-pyrrolo[2,3-b]pyridin-6-yl)cyclopropanecarboxamide] | 0.02 to 0.2 µM
CC1CN(C(=O)c2cc(F)cc(F)c2)CC=C1c1cc(NC(=O)C2CC2)nc2[nH]ccc12 (stereo not drawn) [Example 358, N-(4-(1-(3,5-difluorobenzoyl)-3-methyl-1,2,3,6-tetrahydropyridin-4-yl)-1H-pyrrolo[2,3-b]pyridin-6-yl)cyclopropanecarboxamide] | 0.02 to 0.2 µM
CC1CN(C(=O)C(C#N)Cc2ccc(F)cc2)CC=C1c1cc(NC(=O)C2CC2)nc2[nH]ccc12 (stereo not drawn) [Example 359, N-(4-(1-(2-cyano-3-(4-fluorophenyl)propanoyl)-3-methyl-1,2,3,6-tetrahydropyridin-4-yl)-1H-pyrrolo[2,3-b]pyridin-6-yl)cyclopropanecarboxamide] | 0.02 to 0.2 µM
CC1CN(C(=O)C(C#N)Cc2ccccc2)CC=C1c1cc(NC(=O)C2CC2)nc2[nH]ccc12 (stereo not drawn) [Example 360, N-(4-(1-(2-cyano-3-phenylpropanoyl)-3-methyl-1,2,3,6-tetrahydropyridin-4-yl)-1H-pyrrolo[2,3-b]pyridin-6-yl)cyclopropanecarboxamide] | 0.02 to 0.2 µM
CC1CN(C(=O)C2(C#N)CCCC2)CC=C1c1cc(NC(=O)C2CC2)nc2[nH]ccc12 (stereo not drawn) [Example 361, N-(4-(1-(1-cyanocyclopentane-1-carbonyl)-3-methyl-1,2,3,6-tetrahydropyridin-4-yl)-1H-pyrrolo[2,3-b]pyridin-6-yl)cyclopropanecarboxamide] | 0.02 to 0.2 µM
CC1CN(C(=O)CC(=O)N2CCOCC2)CC=C1c1cc(NC(=O)C2CC2)nc2[nH]ccc12 (stereo not drawn) [Example 362, N-(4-(3-methyl-1-(3-morpholino-3-oxopropanoyl)-1,2,3,6-tetrahydropyridin-4-yl)-1H-pyrrolo[2,3-b]pyridin-6-yl)cyclopropanecarboxamide] | 0.02 to 0.2 µM
CC1CC(c2cc(NC(=O)C3CC3)nc3[nH]ccc23)=CCN1C(=O)CC#N (stereo not drawn) [Example 363, N-(4-(1-(2-cyanoacetyl)-2-methyl-1,2,3,6-tetrahydropyridin-4-yl)-1H-pyrrolo[2,3-b]pyridin-6-yl)cyclopropanecarboxamide] | < 0.02 µM
CC1CN(C(=O)Cc2ccccc2)CC=C1c1cc(NC(=O)C2CC2)nc2[nH]ccc12 (stereo not drawn) [Example 365, N-(4-(3-methyl-1-(2-phenylacetyl)-1,2,3,6-tetrahydropyridin-4-yl)-1H-pyrrolo[2,3-b]pyridin-6-yl)cyclopropanecarboxamide] | 0.02 to 0.2 µM
O=C(Nc1cc(C2=CC3CCCC(C2)N3C(=O)c2ccnc(F)c2)c2cc[nH]c2n1)C1CC1 (stereo not drawn) [Example 366, N-(4-(9-(2-fluoroisonicotinoyl)-9-azabicyclo[3.3.1]non-2-en-3-yl)-1H-pyrrolo[2,3-b]pyridin-6-yl)cyclopropanecarboxamide] | < 0.02 µM
O=C(Nc1cc(C2=CC3CCCC(C2)N3C(=O)c2ccnc(Cl)c2)c2cc[nH]c2n1)C1CC1 (stereo not drawn) [Example 367, N-(4-(9-(2-chloroisonicotinoyl)-9-azabicyclo[3.3.1]non-2-en-3-yl)-1H-pyrrolo[2,3-b]pyridin-6-yl)cyclopropanecarboxamide] | 0.02 to 0.2 µM
O=C(Nc1cc(C2=CC3CCCC(C2)N3C(=O)c2ccc(Cl)nc2)c2cc[nH]c2n1)C1CC1 (stereo not drawn) [Example 368, N-(4-(9-(6-chloronicotinoyl)-9-azabicyclo[3.3.1]non-2-en-3-yl)-1H-pyrrolo[2,3-b]pyridin-6-yl)cyclopropanecarboxamide] | < 0.02 µM
O=C(Nc1cc(C2=CC3CCCC(C2)N3C(=O)c2ccncc2F)c2cc[nH]c2n1)C1CC1 (stereo not drawn) [Example 369, N-(4-(9-(3-fluoroisonicotinoyl)-9-azabicyclo[3.3.1]non-2-en-3-yl)-1H-pyrrolo[2,3-b]pyridin-6-yl)cyclopropanecarboxamide] | 0.02 to 0.2 µM
O=C(Nc1cc(C2=CC3CCCC(C2)N3C(=O)c2ccc([N+](=O)[O-])cc2)c2cc[nH]c2n1)C1CC1 (stereo not drawn) [Example 370, N-(4-(9-(4-nitrobenzoyl)-9-azabicyclo[3.3.1]non-2-en-3-yl)-1H-pyrrolo[2,3-b]pyridin-6-yl)cyclopropanecarboxamide] | 0.02 to 0.2 µM
O=C(Nc1cc(C2=CC3CCCC(C2)N3C(=O)c2cccc(Br)c2)c2cc[nH]c2n1)C1CC1 (stereo not drawn) [Example 371, N-(4-(9-(3-bromobenzoyl)-9-azabicyclo[3.3.1]non-2-en-3-yl)-1H-pyrrolo[2,3-b]pyridin-6-yl)cyclopropanecarboxamide] | 0.02 to 0.2 µM
CC1CN(C(=O)c2cc(Cl)nc(Cl)c2)CC=C1c1cc(NC(=O)C2CC2)nc2[nH]ccc12 (stereo not drawn) [Example 372, N-(4-(1-(2,6-dichloroisonicotinoyl)-3-methyl-1,2,3,6-tetrahydropyridin-4-yl)-1H-pyrrolo[2,3-b]pyridin-6-yl)cyclopropanecarboxamide] | 0.02 to 0.2 µM
CC1CN(C(=O)c2c(Cl)cncc2Cl)CC=C1c1cc(NC(=O)C2CC2)nc2[nH]ccc12 (stereo not drawn) [Example 374, N-(4-(1-(3,5-dichloroisonicotinoyl)-3-methyl-1,2,3,6-tetrahydropyridin-4-yl)-1H-pyrrolo[2,3-b]pyridin-6-yl)cyclopropanecarboxamide] | 0.02 to 0.2 µM
Cc1cc(C(=O)N2CC=C(c3cc(NC(=O)C4CC4)nc4[nH]ccc34)C(C)C2)cc(Cl)n1 (stereo not drawn) [Example 375, N-(4-(1-(2-chloro-6-methylisonicotinoyl)-3-methyl-1,2,3,6-tetrahydropyridin-4-yl)-1H-pyrrolo[2,3-b]pyridin-6-yl)cyclopropanecarboxamide] | 0.02 to 0.2 µM
CC1CN(C(=O)c2ccncc2Cl)CC=C1c1cc(NC(=O)C2CC2)nc2[nH]ccc12 (stereo not drawn) [Example 376, N-(4-(1-(3-chloroisonicotinoyl)-3-methyl-1,2,3,6-tetrahydropyridin-4-yl)-1H-pyrrolo[2,3-b]pyridin-6-yl)cyclopropanecarboxamide] | 0.02 to 0.2 µM
CC1CN(C(=O)c2ccncc2O)CC=C1c1cc(NC(=O)C2CC2)nc2[nH]ccc12 (stereo not drawn) [Example 377, N-(4-(1-(3-hydroxyisonicotinoyl)-3-methyl-1,2,3,6-tetrahydropyridin-4-yl)-1H-pyrrolo[2,3-b]pyridin-6-yl)cyclopropanecarboxamide] | > 0.2 µM
CC1CN(C(=O)c2cccc(F)c2F)CC=C1c1cc(NC(=O)C2CC2)nc2[nH]ccc12 (stereo not drawn) [Example 378, N-(4-(1-(2,3-difluorobenzoyl)-3-methyl-1,2,3,6-tetrahydropyridin-4-yl)-1H-pyrrolo[2,3-b]pyridin-6-yl)cyclopropanecarboxamide] | < 0.02 µM
Cc1cc(C(=O)N2CC=C(c3cc(NC(=O)C4CC4)nc4[nH]ccc34)C(C)C2)ccn1 (stereo not drawn) [Example 379, N-(4-(3-methyl-1-(2-methylisonicotinoyl)-1,2,3,6-tetrahydropyridin-4-yl)-1H-pyrrolo[2,3-b]pyridin-6-yl)cyclopropanecarboxamide] | 0.02 to 0.2 µM
COc1ccc(C(=O)N2CC=C(c3cc(NC(=O)C4CC4)nc4[nH]ccc34)C(C)C2)cn1 (stereo not drawn) [Example 380, N-(4-(1-(6-methoxynicotinoyl)-3-methyl-1,2,3,6-tetrahydropyridin-4-yl)-1H-pyrrolo[2,3-b]pyridin-6-yl)cyclopropanecarboxamide] | 0.02 to 0.2 µM
